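Protocol summary: plate cells (96-well), add compound at 5 concentrations, incubate 48 h, interpolate endpoints linearly. Here, GI50 denotes the concentration required for 50% inhibition of growth.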 Calls of active or inactive are those of the source. No stated cut-off is given here; in the data, active = GI50 up to about 1.1 µM and inactive = higher.
Key:
Assay in all cases: NCI anticancer screen, dose series, 48 h
[1] = system: A498
[2] = system: A549
[3] = system: ACHN
[4] = system: COLO 205
[5] = system: EKVX
[6] = system: HCC 2998
[7] = system: HL-60
[8] = system: HOP-92
[9] = system: HT-29
[10] = system: Hs-578T
[11] = system: KM12
[12] = system: MCF7
[13] = system: MOLT-4
[14] = system: NCI/ADR-RES
[15] = system: OVCAR-3
[16] = system: OVCAR-4
[17] = system: OVCAR-5
[18] = system: SK-MEL-28
[19] = system: SK-MEL-5
[20] = system: SN12C

| Structure (SMILES) | GI50 [1] | GI50 [2] | GI50 [3] | GI50 [4] | GI50 [5] | GI50 [6] | GI50 [7] | GI50 [8] | GI50 [9] | GI50 [10] | GI50 [11] | GI50 [12] | GI50 [13] | GI50 [14] | GI50 [15] | GI50 [16] | GI50 [17] | GI50 [18] | GI50 [19] | GI50 [20] |
| --- | --- | --- | --- | --- | --- | --- | --- | --- | --- | --- | --- | --- | --- | --- | --- | --- | --- | --- | --- | --- |
| Cc1ccc(S(=O)(=O)N2CCC[C@@H]2C(=O)O[C@@H]2CCC3CC=CC32)cc1 (stereo not given in full) | 24.8 µM (inactive) | 34.5 µM (inactive) | 38.5 µM (inactive) | 16.6 µM (inactive) | 41.6 µM (inactive) | 31.5 µM (inactive) | 11.5 µM (inactive) | 15.3 µM (inactive) | 24 µM (inactive) | 33.3 µM (inactive) | 28.3 µM (inactive) | 33.9 µM (inactive) | 17.6 µM (inactive) | 19.3 µM (inactive) | 12.1 µM (inactive) | 47 µM (inactive) | 45.8 µM (inactive) | 47.9 µM (inactive) | 14.8 µM (inactive) | 28.1 µM (inactive) |
| O=c1[nH]nc(-c2ccc([N+](=O)[O-])cc2)[nH]1 | > 100 µM (inactive) | > 100 µM (inactive) | > 100 µM (inactive) | > 100 µM (inactive) | 45.4 µM (inactive) | > 100 µM (inactive) | > 100 µM (inactive) | > 100 µM (inactive) | > 100 µM (inactive) | > 100 µM (inactive) | > 100 µM (inactive) | > 100 µM (inactive) | > 100 µM (inactive) | > 100 µM (inactive) | > 100 µM (inactive) | > 100 µM (inactive) | > 100 µM (inactive) | > 100 µM (inactive) |  | > 100 µM (inactive) |
| Cc1nc(-n2nc(-c3ccccc3)cc2-c2ccccc2)sc1C(/C=C\c1ccc([N+](=O)[O-])cc1)=N/NC(=S)NN | > 100 µM (inactive) | 18.7 µM (inactive) | 40.3 µM (inactive) | > 31.6 µM (inactive) | > 56.6 µM (inactive) | 13.8 µM (inactive) | > 52.5 µM (inactive) | > 100 µM (inactive) | 30.6 µM (inactive) | 25 µM (inactive) | 43.7 µM (inactive) | 15.4 µM (inactive) | > 52.5 µM (inactive) | 26.9 µM (inactive) | > 46.8 µM (inactive) | 26.2 µM (inactive) | 38.7 µM (inactive) | 45.2 µM (inactive) | 27.7 µM (inactive) | 21.7 µM (inactive) |
| Cc1cc2[nH]c(=NS(=O)(=O)c3cc(C)c(Cl)cc3S)[nH]c2cc1C | > 100 µM (inactive) | 35.7 µM (inactive) | 73.8 µM (inactive) | > 100 µM (inactive) | 24.1 µM (inactive) | > 100 µM (inactive) | 28.7 µM (inactive) | > 100 µM (inactive) | > 100 µM (inactive) | > 100 µM (inactive) | 46.2 µM (inactive) | 60.8 µM (inactive) | 21.5 µM (inactive) | 91.4 µM (inactive) | > 100 µM (inactive) | > 100 µM (inactive) | > 100 µM (inactive) | > 100 µM (inactive) | 32.7 µM (inactive) | > 100 µM (inactive) |
| O=C1c2ccccc2CC12Cc1ccccc1C2 | > 100 µM (inactive) | 37.3 µM (inactive) | 63.1 µM (inactive) | 44.7 µM (inactive) | 20.7 µM (inactive) | 18.5 µM (inactive) | 16.6 µM (inactive) | 31.4 µM (inactive) | 23.4 µM (inactive) | 52.2 µM (inactive) | 44.9 µM (inactive) | 53.5 µM (inactive) | 35.7 µM (inactive) | 25.2 µM (inactive) | 44 µM (inactive) | 16.7 µM (inactive) | > 100 µM (inactive) | > 100 µM (inactive) | 16.7 µM (inactive) | 69.3 µM (inactive) |
| O=C1C=C(N2CCN(c3ncccn3)CC2)C(=O)c2c(O)ccc(O)c21 | > 100 µM (inactive) | > 100 µM (inactive) | > 100 µM (inactive) | > 100 µM (inactive) | > 100 µM (inactive) | > 100 µM (inactive) | > 100 µM (inactive) | > 100 µM (inactive) | > 100 µM (inactive) | 27.6 µM (inactive) | > 100 µM (inactive) | > 100 µM (inactive) | > 100 µM (inactive) | > 100 µM (inactive) | > 100 µM (inactive) | > 100 µM (inactive) | > 100 µM (inactive) | > 100 µM (inactive) | 21.5 µM (inactive) | > 100 µM (inactive) |
| CCOC(=O)NNC(=O)C1CSC(c2ccccc2)N1C(C)=O (stereo not given) | > 100 µM (inactive) | > 100 µM (inactive) | > 100 µM (inactive) | > 100 µM (inactive) | > 100 µM (inactive) | > 100 µM (inactive) | > 100 µM (inactive) | 82.2 µM (inactive) | > 100 µM (inactive) | > 100 µM (inactive) | > 100 µM (inactive) | > 100 µM (inactive) | > 100 µM (inactive) | > 100 µM (inactive) | > 100 µM (inactive) | > 100 µM (inactive) | > 100 µM (inactive) |  | > 100 µM (inactive) | > 100 µM (inactive) |
| CNCCCNC1(c2cc3ccccc3s2)CCCCC1 | 3.37 µM (inactive) | 7 µM (inactive) | 14 µM (inactive) | 1.79 µM (inactive) | 13.3 µM (inactive) | 1.29 µM (inactive) | 1.43 µM (inactive) | 2.39 µM (inactive) | 2.46 µM (inactive) | 13.2 µM (inactive) | 5.61 µM (inactive) | 4.12 µM (inactive) | 1.94 µM (inactive) | 14.9 µM (inactive) | 12.5 µM (inactive) | 13.5 µM (inactive) | 14.3 µM (inactive) | 1.64 µM (inactive) | 2.21 µM (inactive) | 5.52 µM (inactive) |
| CN(C)c1ccc(/C=N/NC(=O)c2cnc3ccccc3c2)cc1 | > 100 µM (inactive) | > 100 µM (inactive) | > 100 µM (inactive) | > 100 µM (inactive) | 58.6 µM (inactive) | 42.1 µM (inactive) | > 100 µM (inactive) | 49.4 µM (inactive) |  | 25.5 µM (inactive) | 38.5 µM (inactive) | > 100 µM (inactive) |  | > 100 µM (inactive) | > 100 µM (inactive) | > 100 µM (inactive) | > 100 µM (inactive) | > 100 µM (inactive) | > 100 µM (inactive) | > 100 µM (inactive) |
| COC1=C(C)C(=O)C2=C(C1=O)C1C3CC4=C(C(=O)C(OC)=C(C)C4=O)C(CNC(=O)C(C)O)N3C(C#N)C(C2)N1C (stereo not given) | 0.0107 µM (active) | 0.166 µM (active) | 0.157 µM (active) | < 0.01 µM (active) | 0.0199 µM (active) | < 0.0113 µM (active) | < 0.01 µM (active) | < 0.01 µM (active) | < 0.01 µM (active) | < 0.01 µM (active) | 0.0119 µM (active) | < 0.01 µM (active) | < 0.01 µM (active) | 1.46 µM (inactive) | < 0.01 µM (active) | 0.026 µM (active) | 0.0269 µM (active) | < 0.01 µM (active) | < 0.01 µM (active) | < 0.01 µM (active) |
| CC(C)(C)CC(C)(C)NC(=S)NO | > 100 µM (inactive) | > 100 µM (inactive) | > 100 µM (inactive) | > 100 µM (inactive) | > 100 µM (inactive) | > 100 µM (inactive) | > 100 µM (inactive) | 63.7 µM (inactive) | > 100 µM (inactive) | > 100 µM (inactive) | > 100 µM (inactive) | > 100 µM (inactive) | > 100 µM (inactive) | > 100 µM (inactive) | > 100 µM (inactive) | > 100 µM (inactive) | > 100 µM (inactive) | > 100 µM (inactive) | > 100 µM (inactive) | > 100 µM (inactive) |
| CCN(CC)CCNC(=O)c1ccc(C)c(OCc2ccccc2)c1[N+](=O)[O-] | 50 µM (inactive) | 44.8 µM (inactive) | 56.8 µM (inactive) | 16 µM (inactive) | 68.5 µM (inactive) | 28.8 µM (inactive) | 19.5 µM (inactive) | 24.9 µM (inactive) | 19.1 µM (inactive) | 28.6 µM (inactive) | 39.9 µM (inactive) | 22.3 µM (inactive) | 28.7 µM (inactive) | 33.4 µM (inactive) | 43.9 µM (inactive) | 56.8 µM (inactive) | 35.9 µM (inactive) | 19.4 µM (inactive) | 16.3 µM (inactive) | 74.3 µM (inactive) |
| O=[N+]([O-])c1ccc(C2Nn3c(nnc3-c3cccc([N+](=O)[O-])c3)S2)cc1 (stereo not given) | > 100 µM (inactive) | > 100 µM (inactive) | > 100 µM (inactive) | > 100 µM (inactive) | > 100 µM (inactive) | > 100 µM (inactive) | 89.3 µM (inactive) | > 100 µM (inactive) | > 100 µM (inactive) | > 100 µM (inactive) | > 100 µM (inactive) | 44.3 µM (inactive) | 37.8 µM (inactive) | > 100 µM (inactive) | > 100 µM (inactive) | > 100 µM (inactive) | > 100 µM (inactive) |  | 53.6 µM (inactive) | > 100 µM (inactive) |
| CNC(=S)N/N=C/c1cccc(C)n1 | 20.7 µM (inactive) | 39 µM (inactive) | 28.2 µM (inactive) | 38.2 µM (inactive) | 46.6 µM (inactive) | > 54 µM (inactive) | > 45.5 µM (inactive) | 55.8 µM (inactive) | 36 µM (inactive) | > 91.8 µM (inactive) | 61.1 µM (inactive) | 38.6 µM (inactive) | 39.8 µM (inactive) | 23.8 µM (inactive) | 29.9 µM (inactive) | > 59.7 µM (inactive) | 37.8 µM (inactive) | 56.5 µM (inactive) | 25.1 µM (inactive) | 26.4 µM (inactive) |
